Laboratory results taken from publication PMC3088504 (Bioorganic & medicinal chemistry, 2009).

Molecular target: H1 receptor (Homo sapiens, UniProt P35367)
Experiment: H1 competitive radioligand binding assay
Settings: H1 versus 5-HT2A, from Ki values

H1 receptor, sequence (P35367 whole entry): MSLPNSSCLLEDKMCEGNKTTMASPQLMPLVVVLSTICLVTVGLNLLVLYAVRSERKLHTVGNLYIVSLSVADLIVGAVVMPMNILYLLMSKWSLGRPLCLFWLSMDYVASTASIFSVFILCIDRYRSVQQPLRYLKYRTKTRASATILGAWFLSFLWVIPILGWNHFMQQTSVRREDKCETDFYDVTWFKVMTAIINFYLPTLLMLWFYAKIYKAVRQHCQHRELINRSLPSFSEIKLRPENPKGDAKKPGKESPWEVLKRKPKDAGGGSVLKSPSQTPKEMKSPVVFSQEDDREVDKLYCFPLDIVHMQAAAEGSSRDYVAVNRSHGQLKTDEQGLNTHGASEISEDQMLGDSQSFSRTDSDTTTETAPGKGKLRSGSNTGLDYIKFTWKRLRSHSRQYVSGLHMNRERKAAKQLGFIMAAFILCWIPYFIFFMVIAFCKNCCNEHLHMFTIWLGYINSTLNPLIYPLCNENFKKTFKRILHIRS

CN(C)CCCC1c2ccccc2Cc2ccccc21 [Compound 3c]
selectivity for the H1 receptor: 44 fold
